Data as given in US20210002231A1 (Centre National de la Recherche Scientifique, priority 2018, published 2021).
Like-named read-outs stand apart in the source and are kept apart here. Residues, ends and D or L forms follow the SMILES beside them.

Experiments:
[1] = biological target: T1, human DOPr (Homo sapiens, UniProt P41143); experiment: biochemical; type: binding
T1 construct: expressed in transfected cells; HEK293-Glo20F cells (cAMP)

[2] = biological target: T2, human MOPr (Homo sapiens, UniProt P35372); experiment: Radioligand competition binding with [3H]-diprenorphine; design: expressed in transfected cells; HEK293-Glo20F cells (cAMP)
T2 sequence (P35372 whole entry): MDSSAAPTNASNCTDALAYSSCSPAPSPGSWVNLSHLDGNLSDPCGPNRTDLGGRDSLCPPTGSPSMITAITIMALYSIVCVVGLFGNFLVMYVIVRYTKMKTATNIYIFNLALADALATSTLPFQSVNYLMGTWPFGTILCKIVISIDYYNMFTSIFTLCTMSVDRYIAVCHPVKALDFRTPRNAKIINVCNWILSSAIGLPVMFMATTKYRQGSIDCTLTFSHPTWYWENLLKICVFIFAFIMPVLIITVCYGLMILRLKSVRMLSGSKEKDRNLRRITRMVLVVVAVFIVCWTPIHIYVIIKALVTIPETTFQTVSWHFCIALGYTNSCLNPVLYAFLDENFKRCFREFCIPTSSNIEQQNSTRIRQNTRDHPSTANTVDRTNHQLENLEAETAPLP

[3] = biological target: T1, human DOPr; experiment: Glo-sensor cAMP assay; type: cell-based
Procedure: Stimulation by endogenous RF-amide peptides or test compounds for [^35S]-GTPγS binding to membranes from CHO cells expressing human NPFF1R or NPFF2R, were examined as reported. 1.6. Glo-Sensor cAMP Assay cAMP accumulation assay was essentially done as described with the following modifications: HEK293 cells stably expressing cAMP Glosensor-20F were used, with or without additional stable expression of each individual opioid receptor or NPFF1R. The cAMP responses were measured in presence of D-luciferin (1 mM). All peptides and test compounds were incubated in the presence of IBMX for 15 min before inducing cAMP production by forskolin. IBMX and forskolin concentrations were optimized for each receptor cell line: NPFF1R responses were recorded in presence of 0.1 mM IBMX and 0.4 μM forskolin, NPFF2R responses with 0.5 mM IBMX and 0.3 μM forskolin, MOPr responses with 0.5 mM IBMX and 0.125 μM forskolin, DOPr responses with 0.1 mM IBMX and 0.125 μM forskolin; KOPr and NOPr with 0.5 mM IBMX and 1.5 μM forskolin.

[4] = biological target: NPFF2R (Homo sapiens, UniProt Q9Y5X5); experiment: [35S]-GTPγS binding assay; type: biochemical; design: expressed in transfected cells;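 for Emax: Emax relative to NPFF as 100%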
NPFF2R, sequence (Q9Y5X5 whole entry): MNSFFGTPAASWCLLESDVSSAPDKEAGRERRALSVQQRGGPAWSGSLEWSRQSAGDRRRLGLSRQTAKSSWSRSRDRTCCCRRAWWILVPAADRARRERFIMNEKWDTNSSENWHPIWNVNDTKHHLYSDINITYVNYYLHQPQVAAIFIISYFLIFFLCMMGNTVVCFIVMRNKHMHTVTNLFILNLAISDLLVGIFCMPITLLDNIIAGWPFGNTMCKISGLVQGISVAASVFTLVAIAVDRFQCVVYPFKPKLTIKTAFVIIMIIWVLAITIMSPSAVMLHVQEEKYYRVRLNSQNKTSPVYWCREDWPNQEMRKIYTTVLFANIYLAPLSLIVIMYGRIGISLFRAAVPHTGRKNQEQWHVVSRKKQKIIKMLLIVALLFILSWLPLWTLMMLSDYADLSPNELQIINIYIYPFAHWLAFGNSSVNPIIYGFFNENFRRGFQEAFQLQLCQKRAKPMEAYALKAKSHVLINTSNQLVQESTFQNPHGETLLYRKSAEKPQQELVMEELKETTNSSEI
Procedure: (§1) Stimulation by endogenous RF-amide peptides or test compounds for [^35S]-GTPγS binding to membranes from CHO cells expressing human NPFF1R or NPFF2R, were examined as reported. 1.6. Glo-Sensor cAMP Assay cAMP accumulation assay was essentially done as described with the following modifications: HEK293 cells stably expressing cAMP Glosensor-20F were used, with or without additional stable expression of each individual opioid receptor or NPFF1R. The cAMP responses were measured in presence of D-luciferin (1 mM).

[5] = biological target: T3, human NPFF1R (Homo sapiens, UniProt Q9GZQ6); experiment: [35S]-GTPγS binding assay; type: biochemical; design: expressed in transfected cells; conditions: for Emax: relative to RFRP3
T3 sequence (Q9GZQ6 whole entry): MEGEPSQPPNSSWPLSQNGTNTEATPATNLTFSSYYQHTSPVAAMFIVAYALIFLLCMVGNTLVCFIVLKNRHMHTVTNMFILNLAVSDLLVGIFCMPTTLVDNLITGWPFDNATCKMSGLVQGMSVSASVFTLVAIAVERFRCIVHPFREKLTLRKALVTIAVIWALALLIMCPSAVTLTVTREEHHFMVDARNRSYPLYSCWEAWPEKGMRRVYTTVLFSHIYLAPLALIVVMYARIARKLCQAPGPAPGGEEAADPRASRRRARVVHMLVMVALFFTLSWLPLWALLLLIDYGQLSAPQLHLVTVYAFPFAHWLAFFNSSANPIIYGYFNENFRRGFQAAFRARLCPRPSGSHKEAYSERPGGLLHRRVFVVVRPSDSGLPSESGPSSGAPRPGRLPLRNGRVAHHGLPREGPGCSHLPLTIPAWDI
Procedure: as §1

[6] = biological target: T2, human MOPr; experiment: BRET1 β-arrestin-2 recruitment assay; type: cell-based; design: expressed in transfected cells; host or cells: HEK293 cells stably expressing eYFP-β-arrestin-2, transiently transfected with the Rluc8-MOP plasmid; conditions: for Emax: read-out: MOPr (β-arrestin-2) Emax;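 for Emax: Emax relative to maximal DAMGO-induced BRET as 100%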;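 for MOPr (β-arrestin-2) Emax: Emax relative to maximal DAMGO-induced BRET as 100%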
How it was run: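 HEK293 cells stably expressing eYFP-β-arrestin-2 were transfected two days before with Rluc8-tagged MOP receptor. BRET was read at 37 °C with 5 μM coelenterazine H, 5 min after agonist addition.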

[7] = test system: C57BL/6N mice; experiment: Respiratory depression by whole body plethysmography; type: in vivo; conditions: acute sc.; KGOP01 1.8, KGFF03 1.2, KGFF09 7.4 μmol/kg; 100 min
Procedure: Ventilatory parameters were recorded in conscious C57BL/6N mice by whole body barometric plethysmography (Emka Technologies, Paris, France). Mice were acclimatized with the plethysmograph chamber for 30 min until a stable baseline was obtained. Then, the animal was gently removed from the chamber for sc. injection of the tested drug at TO and replaced in the chamber for the remaining measurements. Respiratory frequency (f) was recorded for 100 min and used as the index of respiratory depression.

[8] = test system: C57BL/6N mice; experiment: Tail immersion test after acute sc. administration; type: in vivo
Procedure: Animal experiments were performed on adult male C57BL/6N male mice (25-30 g weight; Janvier labs, France). Animals were housed in groups of three to five per cage and kept under a 12 h/12 h light/dark cycle at 21±1° C. with ad libitum access to food and water. Experiments were performed during the light-on phase of the cycle. Mice were habituated to the testing room and equipment before starting behavioral experiments. Control and treated group assignment as well as pain response measurements were performed in a blinded manner. Every animal was used only once. 1.11. Drug administration All drugs were dissolved in physiological saline (0.9%) and administered subcutaneously (sc.) at 10 mL/kg (volume/body weight). […] Assessment of thermal nociception The nociceptive sensitivity to thermal stimulation was determined in mice using the warm-water tail immersion tests as previously described [12; 49]. In the tail immersion test, C57BN/6N mice were restrained in a grid pocket and their tail was immersed in a thermostated water bath. […] For analgesic tolerance evaluation, nociceptive latencies were measured on day 1 and 8 according to the acute effect protocol. For the assessment of hyperalgesia, basal nociceptive latencies were measured every day, 30 min before drug or saline injection. Responses are expressed as latency times (in sec) of tail withdrawal from the hot water.

[9] = biological target: T4, human KOPr (Homo sapiens, UniProt P41145); experiment: biochemical; type: binding; conditions: [3H]-diprenorphine
T4 construct: expressed in transfected cells; HEK293-Glo20F cells (cAMP)
T4 sequence (P41145 whole entry): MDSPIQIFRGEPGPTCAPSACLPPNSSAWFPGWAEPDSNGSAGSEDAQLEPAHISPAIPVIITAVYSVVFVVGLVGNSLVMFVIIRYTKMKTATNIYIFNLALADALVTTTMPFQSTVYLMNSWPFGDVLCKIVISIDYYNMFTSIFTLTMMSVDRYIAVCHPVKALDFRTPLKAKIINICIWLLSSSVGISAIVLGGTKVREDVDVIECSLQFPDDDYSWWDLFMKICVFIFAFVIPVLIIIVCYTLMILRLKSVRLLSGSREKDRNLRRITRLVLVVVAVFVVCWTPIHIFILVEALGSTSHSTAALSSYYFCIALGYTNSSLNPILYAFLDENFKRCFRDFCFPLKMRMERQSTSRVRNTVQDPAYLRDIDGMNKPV

[10] = biological target: T5, human NOPr (Homo sapiens, UniProt P41146); experiment: Glo-sensor cAMP assay; type: cell-based
T5 construct: expressed in transfected cells
T5 sequence (P41146 whole entry): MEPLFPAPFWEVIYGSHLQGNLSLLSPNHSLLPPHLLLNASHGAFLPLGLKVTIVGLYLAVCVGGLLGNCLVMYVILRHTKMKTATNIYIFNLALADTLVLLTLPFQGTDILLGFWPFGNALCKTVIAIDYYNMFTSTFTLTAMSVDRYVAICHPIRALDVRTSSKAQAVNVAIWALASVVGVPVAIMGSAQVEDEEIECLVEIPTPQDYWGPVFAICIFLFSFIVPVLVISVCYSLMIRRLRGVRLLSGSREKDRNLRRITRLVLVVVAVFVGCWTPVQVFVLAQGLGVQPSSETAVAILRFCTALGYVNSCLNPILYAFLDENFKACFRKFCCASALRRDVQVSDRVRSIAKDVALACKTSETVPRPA
Procedure: as §1

[11] = biological target: T6, GPR54 (Homo sapiens, UniProt Q969F8); experiment: Radioligand competition binding with [125I]-Kp-10
T6 construct: expressed in transfected cells; host or cells: CHO cells, membranes
T6 sequence (Q969F8 whole entry): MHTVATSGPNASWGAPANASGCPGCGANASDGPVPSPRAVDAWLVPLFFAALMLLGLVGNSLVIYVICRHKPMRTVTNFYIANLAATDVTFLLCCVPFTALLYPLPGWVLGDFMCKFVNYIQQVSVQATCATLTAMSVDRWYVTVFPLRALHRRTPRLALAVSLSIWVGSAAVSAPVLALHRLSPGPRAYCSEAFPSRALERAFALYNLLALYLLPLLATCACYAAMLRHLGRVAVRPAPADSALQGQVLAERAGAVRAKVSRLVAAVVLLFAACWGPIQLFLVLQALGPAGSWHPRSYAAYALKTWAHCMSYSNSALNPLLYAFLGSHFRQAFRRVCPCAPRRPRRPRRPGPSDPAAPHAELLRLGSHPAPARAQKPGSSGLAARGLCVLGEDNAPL

[12] = biological target: T3, human NPFF1R; experiment: Radioligand competition binding with [125I]-1-DMe-NPFF; design: expressed in transfected cells; HEK293-Glo20F cells (cAMP)
[13] = Table 3a, read-out: MOPr (β-arrestin-2) EC50
[14] = [125I]-Kp-10, read-out: Ki ± SEM GPR54

T1 sequence (P41143 whole entry): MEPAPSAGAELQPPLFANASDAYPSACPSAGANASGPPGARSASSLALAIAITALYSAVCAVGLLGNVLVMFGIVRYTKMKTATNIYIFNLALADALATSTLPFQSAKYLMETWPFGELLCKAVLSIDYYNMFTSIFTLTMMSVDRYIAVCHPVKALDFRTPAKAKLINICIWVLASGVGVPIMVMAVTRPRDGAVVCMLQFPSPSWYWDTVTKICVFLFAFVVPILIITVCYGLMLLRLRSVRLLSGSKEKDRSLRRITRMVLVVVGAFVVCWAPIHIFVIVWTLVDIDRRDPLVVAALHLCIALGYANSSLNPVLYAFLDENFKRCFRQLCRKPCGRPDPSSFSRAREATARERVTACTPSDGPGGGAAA

Cc1cc(O)cc(C)c1C[C@H](N)C(=O)N[C@H](CCCNC(=N)N)C(=O)N[C@H]1Cc2ccccc2CN(CCC(=O)N[C@@H](CCCNC(=N)N)C(=O)N[C@@H](Cc2ccccc2)C(N)=O)C1=O [KGFF03, H-Dmt-D-Arg-Aba-β-Ala-Arg-Phe-NH2] (HELM PEPTIDE1{[Cc1cc(O)cc(C)c1C[C@H](N)C(=O)[*:2]].[dR].[O=C1[C@@H](N[*:1])Cc2ccccc2CN1CCC(=O)[*:2]].R.F.[am]}$$$$V2.0)
Ki [1]: 9.1 ± 0.7 nM
Ki [2]: 0.24 ± 0.03 nM
EC50 [3]: 0.34 nM
Emax [3]: 89 ± 6%
Emax [4]: 111 ± 17%
Emax [5]: 88 ± 7%
EC50 [6, 13]: 33.9 ± 8.8 nM
β-arrestin-2 recruitment ([6]; in words): partial agonism
Emax [6]: 41 ± 11%
respiratory depression (respiratory frequency) compared to saline [7]: did not
potency in inducing antinociception compared to KGOP01 [8]: equipotent
Ki [9]: 108 ± 28 nM
Emax [10]: 15 ± 2%
Kb [10]: 5.01 µM
Ki [11]: 4.37 µM

Cc1cc(O)cc(C)c1C[C@H](N)C(=O)N[C@H](CCCNC(=N)N)C(=O)N[C@H]1Cc2ccccc2CN(CCC(=O)N[C@@H](CCCN2CCC(Cc3ccccc3)CC2)C(=O)N[C@@H](Cc2ccccc2)C(N)=O)C1=O [KGFF09, H-Dmt-D-Arg-Aba-β-Ala-Bpa-Phe-NH2]
Ki [1]: 186 ± 77 nM
Ki [2]: 2.43 ± 0.18 nM
EC50 [3]: 0.78 nM
Emax [3]: 90 ± 3%
Emax [4]: 38 ± 14%
Emax [5]: 10 ± 2%
EC50 [6, 13]: 56.4 ± 26.5 nM
β-arrestin-2 recruitment ([6]; in words): partial agonism
Emax [6]: 42 ± 2%
respiratory depression (respiratory frequency) compared to saline [7]: did not
potency in inducing antinociception compared to KGOP01 [8]: 4.5 fold less potent
EC50 [10]: > 10 µM
Emax [10]: 7 ± 3%
Kb ([10]; read-out: pA2, antagonist activity at the NOPr (converted)): 1.15 µM
Ki [11, 14]: 2 µM

Cc1cc(O)cc(C)c1C[C@H](N)C(=O)N[C@H](CCCNC(=N)N)C(=O)N[C@H]1Cc2ccccc2CN(CCC(N)=O)C1=O [KGOP01, reference compound]
Ki [12]: 4.6 µM
Ki [1]: 5.1 ± 0.5 nM
Ki [2]: 0.12 ± 0.02 nM
EC50 [3]: 0.16 ± 0.01 nM
Emax [3]: 91 ± 2%
EC50 ([4]; membranes from CHO-hNPFF2R cells, read-out: NPFF2R (GTPγS) EC50): > 10 µM
EC50 ([5]; membranes from CHO-hNPFF1R cells, read-out: NPFF1R (GTPγS) EC50): > 10 µM
EC50 [6]: 1.6 ± 0.1 nM
β-arrestin-2 recruitment [6]: full response
Emax [6]: 103 ± 9%
respiratory depression (respiratory frequency) compared to saline [7]: significant respiratory depression
Ki [9]: 37.3 ± 9.6 nM
Ki [11, 14]: > 10 µM
